Assay results: paper PMC9873282, “Design, synthesis and evaluation of quinoline-O-carbamate derivatives as multifunctional agents for the treatment of Alzheimer’s disease” (Journal of Enzyme Inhibition and Medicinal Chemistry, 2023)
Where two headings read alike, the source gives them in different places.

Columns and labels:
IL-1β = IL-1β production in LPS-stimulated BV-2 cells (ELISA); assay type: cell-based; conditions: 1 µg/mL LPS 24 h
Description: (§1) Firstly, the cytotoxicity of compounds 3a, 3c, 3e, 3f, 3k, 3m and 3n were tested using CCK8 assay.
(§2) BV-2 cells (2 × 10^5 cells/well) were seeded in a 24-well cell culture plates. The cells were divided into blank control group, model group (1 µg/mL LPS), LPS + 2 µM compound group, LPS + 1 µM compound group. Each drug group was pre-treated with corresponding concentration of drug solution for 8 h. After 8 h, the culture medium was aspirated out. Except for the blank control group, which was added with DMEM medium, the other groups were stimulated with 1 µg/mL LPS for 24 h. Then cell supernatant was aspirated and centrifuged at 3000 rpm for 3 min. The content of NO in cell culture supernatant was determined by Griess method, and the levels of cytokines IL-6 and IL-1β in cell culture supernatant were determined by IL-6 ELISA kit and IL-1β ELISA kit, respectively.

eqBuChE = biological target: T1, eqBuChE (Equus caballus, UniProt P81908); assay: biochemical; set-up: species or system equine; conditions: read-out: eqBuChE inhibition rate
T1 construct: eqBuChE, from equine serum; purchased Sigma Aldrich; host or cells: equine serum (natural source)
T1 sequence (P81908 whole entry): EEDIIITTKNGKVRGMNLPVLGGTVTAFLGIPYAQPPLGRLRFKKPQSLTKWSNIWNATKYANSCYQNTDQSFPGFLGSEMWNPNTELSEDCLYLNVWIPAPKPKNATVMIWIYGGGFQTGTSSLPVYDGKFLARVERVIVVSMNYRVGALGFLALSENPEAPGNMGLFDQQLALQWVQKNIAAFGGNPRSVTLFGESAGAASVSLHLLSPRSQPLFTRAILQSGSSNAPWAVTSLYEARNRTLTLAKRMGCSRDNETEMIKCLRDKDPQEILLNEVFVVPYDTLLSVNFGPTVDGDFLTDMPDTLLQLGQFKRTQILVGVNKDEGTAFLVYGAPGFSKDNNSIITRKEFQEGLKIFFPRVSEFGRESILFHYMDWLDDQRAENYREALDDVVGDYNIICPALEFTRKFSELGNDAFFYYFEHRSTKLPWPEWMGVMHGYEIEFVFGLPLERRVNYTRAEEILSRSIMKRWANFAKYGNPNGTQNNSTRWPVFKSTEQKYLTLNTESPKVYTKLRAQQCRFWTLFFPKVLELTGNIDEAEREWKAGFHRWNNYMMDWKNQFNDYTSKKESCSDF
Description: (§3) The inhibitory activities of the synthesised compounds against eeAChE (from electric eel) and eqBuChE (from equine serum) were tested by the modified Ellman’s method[26]^,[27]. […] The determination of AChE and BuChE inhibitory potency of the synthesised compounds were evaluated by Ellman assay, the detailed procedure referred to our previous work[26]^,[27].

NO = NO release in LPS-stimulated BV-2 cells (Griess method); assay type: cell-based; conditions: 1 µg/mL LPS 24 h
Description: as §1, §2

BV-2 cells = assay: Cytotoxicity on BV-2 cells (CCK8 assay); assay type: cell-based; conditions: compounds at 2 µM
Description: as §1
BV-2 cells were cultured in DMEM containing 10% foetal bovine serum, 100 U/mL penicillin, 100 U/mL streptomycin, and 1% nonessential amino acid at 37 °C with 5% CO2.
BV-2 cells in logarithmic growth stage were digested and centrifuged, and then resuspended in DMEM medium containing 1% penicillin-streptomycin and 10% foetal bovine serum. The cells was adjusted to 1.2 × 10^4 cells/well, and then seeded evenly in 96-well cell culture plates. The cells were incubated for 36 h at 37 °C with 5% CO2. After incubation, the cells were added to different concentrations (10 and 2 µM) of tested compounds, and incubated for 24 h at 37 °C with 5% CO2. Then, 10 µL CCK-8 solution was added to each well, and incubated for another 1 h at 37 °C with 5% CO2. The OD values were tested at […]. The cell viability (%) = {(ODdrug−ODblank)}/{(ODcontrol−ODblank)} × 100%.

PC12 cells = assay: Cytotoxicity on PC12 cells; assay type: cell-based; conditions: at concentration below 40 µM
Description: (§4) The neuroprotective effect of compounds 3a, 3c, 3e, 3f, 3k, 3m, and 3n on Aβ25–35-induced PC12 cells injury were evaluated using CCK-8 assay. […] Furthermore, as shown in Figure 12(B), when PC12 cells were exposed to 25 µM Aβ25-35, the cell viability sharply declined to 57.3% (p < 0.01) compared with untreated group.
(§5) The PC12 cells during the logarithmic growth phase were digested and centrifuged with pancreatic enzyme solution, the cells were resuspended by adding the prepared media solution, and piped evenly with a pipette to seed in a 96-well cell culture plate (cell concentration adjusted to 2.0 × 10^4 cell·mL^−1). Each well was added 100 µL complete medium was added to each well and incubated at 37 °C and 5% CO2 for 24 h.

eeAChE = biological target: T2, eeAChE (Electrophorus electricus, UniProt O42275); assay: biochemical; set-up: species or system electric eel
T2 construct: eeAChE, from the electric eel; purchased Sigma Aldrich; host or cells: electric eel (natural source)
T2 sequence (O42275 24-633): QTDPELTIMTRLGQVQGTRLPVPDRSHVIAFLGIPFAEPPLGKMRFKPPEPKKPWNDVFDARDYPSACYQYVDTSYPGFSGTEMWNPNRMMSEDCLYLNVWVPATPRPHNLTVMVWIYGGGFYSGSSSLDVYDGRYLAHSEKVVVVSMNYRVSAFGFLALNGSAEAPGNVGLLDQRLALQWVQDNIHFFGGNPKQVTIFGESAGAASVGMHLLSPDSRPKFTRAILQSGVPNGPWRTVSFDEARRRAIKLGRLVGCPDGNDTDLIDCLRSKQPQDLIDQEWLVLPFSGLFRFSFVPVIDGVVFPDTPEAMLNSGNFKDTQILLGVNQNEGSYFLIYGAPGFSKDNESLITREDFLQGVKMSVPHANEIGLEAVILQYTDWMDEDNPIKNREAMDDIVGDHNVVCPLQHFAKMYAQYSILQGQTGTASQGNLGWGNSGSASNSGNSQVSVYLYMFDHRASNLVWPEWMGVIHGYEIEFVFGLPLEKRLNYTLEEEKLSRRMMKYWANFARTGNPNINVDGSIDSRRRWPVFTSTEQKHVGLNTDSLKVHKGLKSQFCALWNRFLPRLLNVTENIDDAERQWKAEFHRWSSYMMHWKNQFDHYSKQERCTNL
Description: as §3

[1] = system: Aβ25-35-induced PC12 cells injury; assay: Neuroprotective effect on Aβ25-35-induced PC12 cells injury (CCK-8); assay type: cell-based; conditions: 25 µM Aβ25-35; model cell viability 57.3%
Description: as §4
• Preparation of Aβ25-35 aggregation. Aβ25-35 was purchased from sigma. 1 mg Aβ25-35 was dissolved in 943 µL of sterilised deionised water to obtain 1 mM stock solution, aliquoted, –20 °C preservation. Removing the appropriate volume in a 48-well plate and incubated in a 37 °C incubator for two days to allow its ageing to accumulate and produce neurotoxicity. After aggregation was completed, the solution was diluted with PBS to get 25 µM solution of Aβ25-35 aggregation. • Neuroprotective effects of compounds on Aβ25-35-induced PC12 cells injury
as §5
After incubation for 24 h, PC12 cells were divided into blank group, control group, Aβ25-35 model group and tested compounds group (5, 10, 20 µM). Then the original medium was discarded, and 100 µL new complete medium were added to PC12 cells, and the tested compounds group was added to 100 µL complete medium containing different concentrations (5, 10, and 20 µM) of tested compounds, incubated for 2 h at 37 °C, 5% CO2 conditions. After incubation for 2 h, 10 µL Aβ25-35 solution was added to the tested compounds groups and model group (the final concentration of Aβ25-35 was 25 µM), and incubated for 24 h at 37 °C, 5% CO2 conditions, 10 µL CCK-8 was added to each well and further incubated for 1 h at 37 °C and 5% CO2. Finally, the OD value was measured at 450 nm using a microplate reader, and each concentration set three wells. The cell survival rate (%) was determined according to the following formula: cell viability (%) = {(ODdrug−ODblank)}/{(ODcontrol−ODblank)}.

IL-6 = IL-6 production in LPS-stimulated BV-2 cells (ELISA); assay type: cell-based; conditions: 1 µM and 2 µM; 1 µg/mL LPS 24 h
Description: as §1, §2

ACh = ACh level in AlCl3-induced zebrafish AD model tissue; assay type: in vivo; conditions: 8 µM; model 7.3, untreated 13.9 pmol/L
From the text: . After the behavioural experiments, the 168hpf zebrafish were killed and ground, the tissue were used to test the AChE activity and ACh levels. […] .

hBuChE = biological target: T3, hBuChE (Homo sapiens, UniProt P06276); assay: hBuChE reversibility of inhibition (recovery after dilution); assay type: biochemical
T3 construct: hBuChE, human serum BuChE; purchased Sigma Aldrich; host or cells: human serum (natural source)
T3 sequence (P06276 29-602): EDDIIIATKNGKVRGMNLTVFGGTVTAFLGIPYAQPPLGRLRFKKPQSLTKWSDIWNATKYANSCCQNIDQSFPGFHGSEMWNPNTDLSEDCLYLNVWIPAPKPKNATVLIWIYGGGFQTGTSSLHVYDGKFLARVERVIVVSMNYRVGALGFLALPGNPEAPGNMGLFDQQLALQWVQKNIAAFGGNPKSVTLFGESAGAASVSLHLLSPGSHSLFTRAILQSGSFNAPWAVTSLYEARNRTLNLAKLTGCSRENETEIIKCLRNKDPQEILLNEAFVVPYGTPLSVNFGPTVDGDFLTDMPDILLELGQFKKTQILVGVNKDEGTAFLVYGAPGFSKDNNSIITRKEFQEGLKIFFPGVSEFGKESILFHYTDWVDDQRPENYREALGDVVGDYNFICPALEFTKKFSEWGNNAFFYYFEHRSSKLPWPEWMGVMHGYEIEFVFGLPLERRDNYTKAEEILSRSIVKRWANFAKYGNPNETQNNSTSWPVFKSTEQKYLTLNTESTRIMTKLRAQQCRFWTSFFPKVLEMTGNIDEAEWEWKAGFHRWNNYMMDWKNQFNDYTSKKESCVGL

[2] = AChE from electric eel, read-out: IC50 ± SD eeAChE

SMILES: CCN(C)C(=O)Oc1ccc2ncccc2c1 [Compound 3k, Quinolin-6-yl ethyl(methyl)carbamate]
- levels of IL-1β compared with model group (IL-1β): significantly decreased
- inhibition at 25 µM (eqBuChE): 5.8 ± 0.03%
- release volume of NO (NO): significantly decreased
- cell viability of BV-2 cells (BV-2 cells): did not show obvious change
- cytotoxicity on PC12 cells (PC12 cells): did not show any cytotoxicity
- IC50 (eeAChE): 10.3 ± 0.58 µM
- neuroprotective effect on Aβ25-35-induced PC12 cells injury [1]: significant neuroprotective effects at 10 µM
- levels of IL-6 compared with model group (IL-6): significantly decreased

SMILES: O=C(Oc1ccc2ncccc2c1)N1CCOCC1 [Compound 3l, Quinolin-6-yl morpholine-4-carboxylate]
- inhibition at 25 µM (eqBuChE; at 25 μM of compounds): 13.8 ± 0.61%
- IC50 (eeAChE; [2]): 17.6 ± 0.61 µM

SMILES: CN(C)C(=O)Oc1cccc2cccnc12 [Compound 3m, Quinolin-8-yl dimethylcarbamate]
- levels of IL-1β compared with model group (IL-1β): did not obviously decrease
- inhibition at 25 µM (eqBuChE): 7.3 ± 0.05%
- release volume of NO (NO): significantly decreased
- cell viability of BV-2 cells (BV-2 cells): did not show obvious change
- cytotoxicity on PC12 cells (PC12 cells): did not show any cytotoxicity
- IC50 (eeAChE): 6.5 ± 0.05 µM
- neuroprotective effect on Aβ25-35-induced PC12 cells injury [1]: significant neuroprotective effects at 5 and 10 µM
- levels of IL-6 compared with model group (IL-6): significantly decreased

SMILES: CCN(CC)C(=O)Oc1cccc2cccnc12 [Compound 3n, Quinolin-8-yl diethylcarbamate]
- levels of IL-1β compared with model group (IL-1β): did not obviously decrease
- inhibition at 25 µM (eqBuChE; at 25 μM of compounds): 2.4 ± 0.01%
- release volume of NO (NO): significantly decreased
- cell viability of BV-2 cells (BV-2 cells): did not show obvious change
- cytotoxicity on PC12 cells (PC12 cells): did not show any cytotoxicity
- IC50 (eeAChE; [2]): 9.7 ± 0.07 µM
- neuroprotective effect on Aβ25-35-induced PC12 cells injury [1]: significant neuroprotective effects at 5 and 10 µM
- levels of IL-6 compared with model group (IL-6): significantly decreased

SMILES: CCN(C)C(=O)Oc1cccc2cccnc12 [Compound 3o, Quinolin-8-yl ethyl(methyl)carbamate]
- inhibition at 25 µM (eqBuChE): 4.1 ± 0.02%
- IC50 (eeAChE): 8.2 ± 0.06 µM

SMILES: O=C(Oc1cccc2cccnc12)N1CCOCC1 [Compound 3p, Quinolin-8-yl morpholine-4-carboxylate]
- inhibition at 25 µM (eqBuChE; at 25 μM of compounds): 10.8 ± 0.07%
- IC50 (eeAChE; [2]): 12.6 ± 0.76 µM

SMILES: CC(C)N(C(=O)Oc1cccc2cccnc12)C(C)C [Compound 3q, Quinolin-8-yl diisopropylcarbamate]
- inhibition at 25 µM (eqBuChE; at 25 μM of compounds): 1.7 ± 0.01%
- IC50 (eeAChE; [2]): 14.8 ± 0.68 µM

SMILES: COc1cc2c(cc1OC)C(=O)C(CC1CCN(Cc3ccccc3)CC1)C2 (centres unmarked) [Donepezil, reference compound]
- ACh activity (level) (ACh): 14.0 pmol/L

SMILES: CCN(C)C(=O)Oc1cccc([C@H](C)N(C)C)c1 [Rivastigmine, reference compound]
- hBuChE activity (% control) (hBuChE; 0.1*IC50, diluted): 46.9 % control
- hBuChE activity restored (hBuChE; 0.1 × IC50, 120 min): 62.3%
- hBuChE activity restored (hBuChE; 0.1 × IC50, 240 min): 121.8%
- hBuChE activity (% control) (hBuChE; 1*IC50, diluted): 52.3 % control
- hBuChE activity (% control) (hBuChE; 1*IC50, undiluted): 51.4 % control
